In PMC4125136, “A Novel Dual Allosteric Activation Mechanism of Escherichia coli ADP-Glucose Pyrophosphorylase: The Role of Pyruvate” (PLoS ONE, 2014):
Where “and” joins values, the source holds several entries; their conditions need not be identical. Equal values may be shown once. Read-outs that look alike come from different tables or passages of the source.

Experiments:
[1] = biological target: T1, E. coli ADP-Glc PPase (Escherichia coli, UniProt P0A6V1); experiment: ADP-Glc synthesis assay (Pi formation, Malachite Green) with Hill-equation kinetic characterization; type: biochemical; settings: for IC50: read-out: I 0.5 for AMP
T1 construct: made in house; host or cells: E. coli BL21 (DE3)
Method: Synthesis of ADP-Glc was assayed by following the formation of Pi (after hydrolysis of pyrophosphate by inorganic pyrophosphatase) as previously described. Unless otherwise stated, a 50 µl reaction mixture contained 100 mM HEPES (pH 8.0), 10 mM MgCl2, 1.5 mM ATP, 0.2 mg/ml bovine serum albumin, 0.5 mU/µl yeast inorganic pyrophosphatase, and the given amount of enzyme. Assays were initiated with 1 mM Glc-1P. If mentioned, a given amount of Pyr, Fru-1,6-P2, and/or AMP was also included. After incubation for 10 min at 37°C, addition of Malachite Green reagent terminated the reaction. The complex formed with the released Pi was measured at 630 nm with an ELISA EMax detector (Molecular Devices). Sodium pyrophosphate was used as standard. One unit of enzyme activity was defined as the amount producing of 1 µmol of product in 1 min under the specified conditions.
Data of enzyme activity were plotted versus effector concentration. Kinetic parameters from the Hill equation such as Hill coefficient (n H), maximal velocity (V max), as well as the activator substrate or inhibitor concentrations giving 50% of the maximal activation (A 0.5), velocity (S 0.5), or inhibition (I 0.5), were acquired by fitting the data with a non-linear least-squares algorithm using the program Origin 7.0 (OriginLab). Parameters are the mean of at least three independent sets of data, reproducible within ±10%. Sample standard deviations of the data were calculated from the Hill equation fitting by using the Levenberg–Marquardt method.

[2] = biological target: T1, E. coli ADP-Glc PPase; settings: cited from earlier work
[3] = test system: A. tumefaciens ADP-Glc PPase; design: method as in PMID 9721178; settings: cited from earlier work
[4] = F. 50 mM Pyr +150 µM Fru-1,6-P2
[5] = 50 µM AMP and 100 µM Fru-1,6-P2 (Figure 5)

T1 sequence (P0A6V1 whole entry): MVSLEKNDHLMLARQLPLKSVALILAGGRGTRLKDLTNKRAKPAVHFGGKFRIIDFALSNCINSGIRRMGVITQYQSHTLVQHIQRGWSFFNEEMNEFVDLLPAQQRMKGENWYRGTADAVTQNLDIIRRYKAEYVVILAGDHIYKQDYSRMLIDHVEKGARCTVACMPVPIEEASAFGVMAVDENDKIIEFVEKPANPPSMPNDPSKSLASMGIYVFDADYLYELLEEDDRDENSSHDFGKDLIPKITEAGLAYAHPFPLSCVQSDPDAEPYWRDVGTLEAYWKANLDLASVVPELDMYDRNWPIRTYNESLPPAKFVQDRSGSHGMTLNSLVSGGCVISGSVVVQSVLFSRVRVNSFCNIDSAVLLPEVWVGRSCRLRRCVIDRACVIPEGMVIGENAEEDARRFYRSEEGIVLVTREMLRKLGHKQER

Nc1ncnc2c1ncn2[C@@H]1O[C@H](COP(=O)(O)O)[C@@H](O)[C@H]1O [AMP]
n H of AMP inhibition ([1]; 100 µM Fru-1,6-P2, absence of Pyr): 1.7 | IC50 ([1]; 100 µM Fru-1,6-P2, absence of Pyr (Figure 4)): 30 µM | remaining activity at maximum inhibition ([1]; 100 µM Fru-1,6-P2, both in absence and presence of 20 mM Pyr): around 10% | n H of AMP inhibition ([1]; 100 µM Fru-1,6-P2, presence of 20 mM Pyr): 2.4 | IC50 ([1]; 100 µM Fru-1,6-P2, presence of 20 mM Pyr (Figure 4)): 110 µM

Nc1ncnc2c1ncn2[C@@H]1O[C@H](COP(=O)(O)OP(=O)(O)OP(=O)(O)O)[C@@H](O)[C@H]1O [ATP-Mg]
ATP-Mg S 0.5 ([1]; A. No effector): 6.49 ± 0.21 mM | ATP-Mg n H ([1]; A. No effector): 1.5 | ATP-Mg S 0.5 ([1]; B. 25 mM Pyr): 1.67 ± 0.08 mM | ATP-Mg n H ([1]; B. 25 mM Pyr): 2.5 | ATP-Mg S 0.5 ([1]; C. 50 mM Pyr): 1.05 ± 0.06 mM | ATP-Mg n H ([1]; C. 50 mM Pyr): 2.2 | ATP-Mg S 0.5 ([1]; D. 25 mM Pyr +10 µM Fru-1,6-P2): 0.99 ± 0.07 mM | ATP-Mg n H ([1]; D. 25 mM Pyr +10 µM Fru-1,6-P2): 3.6 | ATP-Mg S 0.5 ([1]; E. 10 µM Fru-1,6-P2): 5.02 ± 0.25 mM | ATP-Mg n H ([1]; E. 10 µM Fru-1,6-P2): 2.1 | ATP-Mg S 0.5 [1, 4]: 0.37 ± 0.03 mM | ATP-Mg n H [1, 4]: 2.4 | ATP-Mg S 0.5 ([1]; G. 150 µM Fru-1,6-P2): 1.31 ± 0.09 mM | ATP-Mg n H ([1]; G. 150 µM Fru-1,6-P2): 3.2 | ATP-Mg S 0.5 ([1]; I. 2 mM Fru-1,6-P2): 0.43 ± 0.02 mM | ATP-Mg n H ([1]; I. 2 mM Fru-1,6-P2): 2.1 | ATP-Mg S 0.5 ([1]; J. 50 mM Pyr +2 mM Fru-1,6-P2): 0.19 ± 0.02 mM | ATP-Mg n H ([1]; J. 50 mM Pyr +2 mM Fru-1,6-P2): 1.4

O=C(COP(=O)(O)O)[C@@H](O)[C@H](O)[C@H](O)COP(=O)(O)O [Fru-1,6-P2, Fructose-1,6-bisphosphate]
A 0.5 for Fru-1,6-P2 [2]: sub-millimolar range | increase of enzyme activity [2]: ~50 fold | improvement of apparent affinity of the enzyme for Pyr ([1]; 30 µM Fru-1,6-P2 (Figure 1)): 8.4 fold | V max ([1]; E. 10 µM Fru-1,6-P2): 6.21±0.19 U/mg | V max ([1]; G. 150 µM Fru-1,6-P2): 63±4 U/mg | V max ([1]; I. 2 mM Fru-1,6-P2): 108±6 U/mg | EC50 ([1]; absence of Pyr (Figure 3A), read-out: A 0.5 for Fru-1,6-P2): 120 µM | EC50 ([1]; as stated in legend of Figure 5, read-out: A 0.5 for Fru-1,6-P2): 100 µM | decrease of Pyr A 0.5 ([1]; at 50 µM Fru-1,6-P2): 5 fold | EC50 ([1]; presence of 2.5 mM Pyr (Figure 3A), read-out: A 0.5 for Fru-1,6-P2): 70 µM

O=P(O)(O)OC1O[C@H](CO)[C@@H](O)[C@H](O)[C@H]1O (stereo partly drawn) [Glc-1P]
Glc-1P S 0.5 ([1]; A. No effector): 0.95 ± 0.07 mM | Glc-1P n H ([1]; A. No effector): 1.1 | Glc-1P S 0.5 ([1]; B. 25 mM Pyr): 0.57 ± 0.05 mM | Glc-1P n H ([1]; B. 25 mM Pyr): 1.0 | Glc-1P S 0.5 ([1]; C. 50 mM Pyr): 0.37 ± 0.02 mM | Glc-1P n H ([1]; C. 50 mM Pyr): 0.9 | Glc-1P S 0.5 ([1]; D. 25 mM Pyr +10 µM Fru-1,6-P2): 0.23 ± 0.02 mM | Glc-1P n H ([1]; D. 25 mM Pyr +10 µM Fru-1,6-P2): 1.3 | Glc-1P S 0.5 ([1]; E. 10 µM Fru-1,6-P2): 0.77 ± 0.04 mM | Glc-1P n H ([1]; E. 10 µM Fru-1,6-P2): 1.0 | Glc-1P S 0.5 [1, 4]: 0.09 ± 0.01 mM | Glc-1P n H [1, 4]: 1.1 | Glc-1P S 0.5 ([1]; G. 150 µM Fru-1,6-P2): 0.12 ± 0.01 mM | Glc-1P n H ([1]; G. 150 µM Fru-1,6-P2): 1.2 | Glc-1P S 0.5 ([1]; I. 2 mM Fru-1,6-P2): 0.09 ± 0.01 mM | Glc-1P n H ([1]; I. 2 mM Fru-1,6-P2): 1.3 | Glc-1P S 0.5 ([1]; J. 50 mM Pyr +2 mM Fru-1,6-P2): 0.11 ± 0.01 mM | Glc-1P n H ([1]; J. 50 mM Pyr +2 mM Fru-1,6-P2): 1.0

Cc1ncc(COP(=O)(O)O)c(C=O)c1O [PLP, pyridoxal-5′-phosphate]
EC50 ([1]; absence of Pyr (Figure 3B), read-out: A 0.5 for PLP): 2.7 µM | EC50 ([1]; presence of 10 mM Pyr (Figure 3B), read-out: A 0.5 for PLP): 1 µM

CC(=O)C(=O)O [Pyr, pyruvate]
EC50 ([2]; weak activation, read-out: A 0.5 for Pyr): > 10000 µM | activation of the partially inhibited enzyme [1, 5]: 4 fold | nH of Pyr activation [1, 5]: 1.2 | EC50 ([1]; 50 µM AMP and 100 µM Fru-1,6-P2 (Figure 5), read-out: A 0.5 for Pyr): 2760 µM | absolute activity (reference for relative activity, Figure 4) ([1]; 20 mM Pyr with 100 µM Fru-1,6-P2, control without Pyr 31.2 U/mg): 61.8 U/mg | decrease of apparent affinity for AMP ([1]; 20 mM Pyr, 100 µM Fru-1,6-P2): 3 fold | enzyme more active if Pyr was present (relative activities) ([1]; 20 mM Pyr, 100 µM Fru-1,6-P2, 0.05–0.15 mM AMP range): up to 3 fold | increase of affinity for Glc-1P ([1]; 25 mM Pyr combined with 10 µM Fru-1,6-P2, compared to absence of any effector): 4.1 fold | lowering of S 0.5 for ATP ([1]; 25 mM Pyr combined with 10 µM Fru-1,6-P2, vs no effector): 6.6 fold | lowering of S 0.5 for Glc-1P ([1]; 25 mM Pyr vs no effector): 1.7 fold | reduction of S 0.5 for ATP ([1]; 25 mM Pyr vs no effector): 3.9 fold | lowering of S 0.5 for Glc-1P ([1]; 50 mM Pyr vs no effector): 2.6 fold | reduction of S 0.5 for ATP ([1]; 50 mM Pyr vs no effector): 6.2 fold | increase of enzyme activity ([1]; 100 mM Pyr (highest concentration tested), no other effector): 3.3 fold | V max ([1]; B. 25 mM Pyr): 3.93±0.21 U/mg | V max ([1]; C. 50 mM Pyr): 5.31±0.19 U/mg | V max ([1]; D. 25 mM Pyr +10 µM Fru-1,6-P2): 31±2 U/mg | V max [1, 4]: 104±5 U/mg | A 0.5 for Pyr ([1]; Figure 2, at increasing concentrations of Fru-1,6-P2): low mM range | V max ([1]; J. 50 mM Pyr +2 mM Fru-1,6-P2): 110±5 U/mg | increase in V max by Pyr ([1]; Pyr alone): ~4 fold and 5 fold | nH of Pyr activation ([1]; absence of any other regulatory effector (Figure 1)): 1.03 | EC50 ([1]; absence of any other regulatory effector (Figure 1), read-out: A 0.5 for Pyr): 25000 µM | EC50 ([1]; at 50 µM Fru-1,6-P2, read-out: A 0.5 for Pyr): 5000 µM | maximal activation by Pyr ([1]; in presence of 10 µM or 30 µM Fru-1,6-P2 (Figure 1)): ~6 fold | EC50 ([1]; presence of 1 µM PLP (data not shown), read-out: A 0.5 for Pyr): 3700 µM | Pyr activation [3]: 5 fold | EC50 ([3]; read-out: A 0.5 for Pyr): 130 µM
